Reference: the supplement of paper PMC10307832

Columns and labels:
Test in all cases: relative viability (nuclei count vs DMSO), 5 days (fraction); higher = more cells survive
[1] = compound: CN(c1ncccc1CNc1nc(Nc2ccc3c(c2)CC(=O)N3)ncc1C(F)(F)F)S(C)(=O)=O + C[C@]1(O)C[C@@H](c2nc(-c3ccc4ccc(-c5ccccc5)nc4c3)c3c(N)nccn32)C1 [Linsitinib] (partner 1 µM)
Procedure, shortened: (§1)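 The day after seeding in 1536-well plates, lung cancer cell lines were treated by pin tool with a single drug, or with a fixed anchor-drug dose together with five library-drug doses (not always all listed) in √10 steps. After 5 days, a combined fix-and-stain solution (final 0.05% Triton X-100, 1% formaldehyde, 1 ug/ml Hoechst) was added. Nuclei counted on 4× images gave relative viability as treated counts over vehicle counts, reported as the median of duplicate plates.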

[2] = compound: CN(c1ncccc1CNc1nc(Nc2ccc3c(c2)CC(=O)N3)ncc1C(F)(F)F)S(C)(=O)=O + CC1(C)CCC(c2ccc(Cl)cc2)=C(CN2CCN(c3ccc(C(=O)NS(=O)(=O)c4ccc(N[C@H](CCN5CCOCC5)CSc5ccccc5)c(S(=O)(=O)C(F)(F)F)c4)cc3)CC2)C1 [Navitoclax] (partner 0.5 µM)
Procedure, shortened: as §1

[3] = compound: CN(c1ncccc1CNc1nc(Nc2ccc3c(c2)CC(=O)N3)ncc1C(F)(F)F)S(C)(=O)=O + O=C(CCCCCCC(=O)Nc1ccccc1)NO [Vorinostat] (partner 1 µM)
Procedure, shortened: as §1

[4] = compound: CN(c1ncccc1CNc1nc(Nc2ccc3c(c2)CC(=O)N3)ncc1C(F)(F)F)S(C)(=O)=O + Cc1nc(NC(=O)N2CCC[C@H]2C(N)=O)sc1-c1ccnc(C(C)(C)C(F)(F)F)c1 [Alpelisib] (partner 2 µM)
Procedure, shortened: as §1

Cell Line	relative viability ([1]; first compound 0.01 µM)	relative viability ([1]; first compound 0.03162 µM)	relative viability ([1]; first compound 0.1 µM)	relative viability ([1]; first compound 0.3162 µM)	relative viability ([1]; first compound 1 µM)	relative viability ([2]; first compound 0.01 µM)	relative viability ([2]; first compound 0.03162 µM)	relative viability ([2]; first compound 0.1 µM)	relative viability ([2]; first compound 0.3162 µM)	relative viability ([2]; first compound 1 µM)	relative viability ([3]; first compound 0.01 µM)	relative viability ([3]; first compound 0.03162 µM)	relative viability ([3]; first compound 0.1 µM)	relative viability ([3]; first compound 0.3162 µM)	relative viability ([3]; first compound 1 µM)	relative viability ([4]; first compound 0.01 µM)	relative viability ([4]; first compound 0.03162 µM)	relative viability ([4]; first compound 0.1 µM)	relative viability ([4]; first compound 0.3162 µM)	relative viability ([4]; first compound 1 µM)
NCI-H647	1.1	1.4	1.13	0.95	1.1	1.16	1.21	1.16	1.04	1.07	0.473	0.742	0.476	0.577	0.631	1.09	0.919	1.14	1.02	1.17
A-427	1.12	1.12	1.1	1.14	1.06	0.999	0.973	1.02	0.973	0.945	0.892	0.874	0.878	0.903	0.859	1.09	1.15	1.02	1.15	1.08
COR-L 105	0.964	1	1.09	0.882	0.67	0.773	0.833	0.869	0.777	0.493	0.813	0.865	0.873	0.855	0.619	1.06	1.16	1.13	0.887	0.872
NCI-H441	0.457	0.707	0.513	0.583	0.536	0.476	0.687	0.479	0.706	0.374	0.933	0.978	0.824	0.792	0.644	0.624	0.65	0.557	0.793	0.614
NCI-H2126	0.698	0.776	0.714	0.721	0.7	0.838	0.893	0.849	0.894	0.776	0.76	0.845	0.642	0.831	0.701	0.717	0.739	0.742	0.743	0.641
HCC-44	0.73	0.688	0.722	0.714	0.664	0.977	1.15	0.951	0.905	0.756	1.1	1.06	1.13	1.14	1.1	0.872	0.792	0.789	0.824	0.778
NCI-H460	0.79	1.17	0.785	0.628	0.788	1.18	1.46	1.13	1.19	1.11	0.696	0.757	0.615	0.76	0.736	0.519	0.577	0.487	0.443	0.508
SK-LU-1	0.936	1.12	0.966	1.02	0.97	0.878	0.841	0.735	0.766	0.768	0.6	0.693	0.722	0.711	0.594	0.929	1.25	0.988	0.988	0.928
NCI-H322M	1.02	1.08	–	1.1	1.16	1.3	1.34	–	1.51	1.26	0.883	0.875	0.916	0.97	0.98	0.821	0.79	–	0.902	0.96
EKVX	0.94	1.13	0.85	0.931	0.882	0.974	1.02	0.944	0.852	0.81	0.638	0.746	0.638	0.627	0.494	0.771	0.905	0.859	0.812	0.864
NCI-H1734	0.939	1.01	0.796	0.966	0.751	0.894	0.937	0.824	0.866	0.707	0.809	0.818	0.799	0.8	0.781	0.665	0.778	0.666	0.631	0.641
NCI-H520	1.03	0.941	1	1.03	0.842	1.05	1.12	1.2	1.19	1.17	0.678	0.925	0.693	0.746	0.754	0.985	0.894	0.829	0.96	1
EPLC-272H	1.21	1.12	1.22	1.33	1.12	1.28	1.08	1.16	1.35	0.97	0.546	0.23	0.408	0.564	0.263	0.811	1.1	0.781	0.885	0.927
UMC-11	0.979	1.02	1.03	0.952	0.781	0.321	0.296	0.313	0.297	0.235	0.417	0.363	0.314	0.331	0.229	1	1.06	0.901	0.809	0.787
NCI-H1993	0.678	0.727	0.78	0.771	0.736	0.822	0.892	0.998	0.911	0.9	0.831	0.773	0.805	0.709	0.577	0.739	0.632	0.612	0.663	0.674
NCI-H596	1	1.12	1.02	1.05	0.896	0.9	0.912	0.965	0.86	0.675	0.586	0.616	0.566	0.557	0.69	0.58	0.48	0.482	0.48	0.392
